Results published in US20240374561A1, “METHOD FOR PREVENTING NITRATION OF TYROSINE RESIDUES IN HEPATOCYTE GROWTH FACTOR USING TRISULFIDE COMPOUND” (KYUSHU UNIVERSITY, NATIONAL UNIVERSITY CORPORATION, priority 2021, published 2024).

Key:
recombinant mouse HGF = molecular target: T1, recombinant mouse HGF (Mus musculus, UniProt Q08048); experiment: Inhibition of nitration of recombinant HGF protein by peroxynitrite (ONOO-), Western blot with anti-nitrotyrosine antibody; format: biochemical; details: for inhibit nitration of tyrosine residues in HGF: summary statement
T1 construct: purchased R&D Systems 2207-HG-025/CF
T1 sequence (Q08048 33-728): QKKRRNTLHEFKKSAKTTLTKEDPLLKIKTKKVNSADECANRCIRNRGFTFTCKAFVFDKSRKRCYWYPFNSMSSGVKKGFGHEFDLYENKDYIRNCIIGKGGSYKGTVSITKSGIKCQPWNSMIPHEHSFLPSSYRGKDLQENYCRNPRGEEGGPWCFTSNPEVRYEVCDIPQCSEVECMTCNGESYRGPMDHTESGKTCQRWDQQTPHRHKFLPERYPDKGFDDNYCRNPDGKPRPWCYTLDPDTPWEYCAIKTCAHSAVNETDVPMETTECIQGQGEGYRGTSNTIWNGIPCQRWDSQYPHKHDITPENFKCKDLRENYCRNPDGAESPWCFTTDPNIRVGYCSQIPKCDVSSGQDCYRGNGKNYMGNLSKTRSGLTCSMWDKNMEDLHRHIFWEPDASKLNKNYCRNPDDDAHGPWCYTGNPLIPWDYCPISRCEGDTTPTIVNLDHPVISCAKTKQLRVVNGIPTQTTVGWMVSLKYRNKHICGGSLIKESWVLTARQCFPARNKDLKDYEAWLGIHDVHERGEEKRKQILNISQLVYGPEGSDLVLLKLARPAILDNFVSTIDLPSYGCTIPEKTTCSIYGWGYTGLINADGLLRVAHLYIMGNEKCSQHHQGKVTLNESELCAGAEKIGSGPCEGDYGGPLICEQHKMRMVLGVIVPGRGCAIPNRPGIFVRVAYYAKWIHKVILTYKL
Protocol: GSSSG dihydrate produced by the method described in Patent Literature 1 was added to and mixed with a purified preparation of recombinant mouse HGF (2207-HG-025/CF, manufactured by R&D Systems, carrier free) dissolved in PBS such that the molar ratio of HGF:GSSSG was 1:10, 1:50, or 1:400 to prepare samples. A sample was also prepared in which GSSSG dihydrate was not added and the molar ratio of HGF:GSSSG was 1:0. Peroxynitrite (ONOO^−) was immediately added to each sample such that the molar ratio of HGF:ONOO^− was 1:500. The samples were held at pH 7.2 to 7.4 and 25 to 37° C. for 30 minutes (nitrating treatment) to give nitrated samples.
The obtained nitrated samples were subjected to Western blotting in accordance with a conventional method. The nitrated samples were treated with a solution containing SDS and β-mercaptoethanol to give samples for reduced SDS-PAGE. A 10% polyacrylamide gel was used for electrophoresis. The material of the transfer membrane used was nitrocellulose. HRP-labeled anti-nitrotyrosine monoclonal antibody (catalog number: sc-32757 HRP, manufactured by Santa Cruz Biotechnology) and HRP-labeled anti-HGF monoclonal antibody (catalog number: sc-374422 HRP, manufactured by Santa Cruz Biotechnology) were used. The immune response was recorded on an imaging device using ECL reagents. Nitrated bovine serum albumin (BSAnitro) was used as a positive control sample. PL (Protein Ladder) and MW-STD (Molecular Weight-Standard) in FIG. 1 are molecular weight markers. Further, material A in FIG. 1 means GSSSG.
Nitration treatment and Western blotting were performed in the same manner as in Example 1 except that lipoic acid trisulfide was used instead of GSSSG and the molar ratio of HGF:ONOO was set to 1:4000. In FIG. 1, material B means lipoic acid trisulfide.

[1] = Solubility in water at 20° C.; format: physicochemical; details: free lipoic acid trisulfide

SMILES	reaction intensity with the anti-nitrotyrosine antibody (nitration of tyrosine residues in HGF) (recombinant mouse HGF; increasing molar ratio of lipoic acid trisulfide, HGF:ONOO 1:4000, otherwise as Example 1, FIG. 2)	inhibit nitration of tyrosine residues in HGF (recombinant mouse HGF)	reaction intensity with the anti-nitrotyrosine antibody (nitration of tyrosine residues in HGF) (recombinant mouse HGF; molar ratio HGF:GSSSG 1:0, 1:10, 1:50, 1:400, HGF:ONOO- 1:500, pH 7.2 to 7.4, 25 to 37° C., 30 minutes, FIG. 1)	Lipoic acid trisulfide Solubility [1] [µg/mL]
O=C(O)CCCCC1CCSSS1 (centres unmarked) [lipoic acid trisulfide]	decreased with an increase in the molar ratio of lipoic acid trisulfide added	in a concentration-dependent manner	–	–
N[C@@H](CCC(=O)N[C@@H](CSSSC[C@H](NC(=O)CC[C@H](N)C(=O)O)C(=O)NCC(=O)O)C(=O)NCC(=O)O)C(=O)O [GSSSG, glutathione trisulfide]	–	in a concentration-dependent manner	decreased with an increase in the molar ratio of GSSSG added	–
O=C(O)CCCC[C@@H]1CCSSS1 [Lipoic acid trisulfide R body, (R)-lipoic acid trisulfide]	–	–	–	300
